Molecules are shown by their SMILES.

Test [1] deals with CT26-G12C tumors. The test can be described thus: Single cell RNA sequencing of CT26-G12C tumors. It is filed as in vivo, mouse. An excerpt:
UMAP projections were generated from scRNA-seq data and used for visualization. Cell type clusters detected in DAPI-sorted cells from CT26-G12C SC. Tumors (FIG. 4A), or from CT26-G12C in vitro cell line (FIG. 4D) treated with the indicated conditions are shown, with cell % percentage histogram and gene-level expression heat map calculated for each cluster.

For test [2], the system named is CT26-G12C colon cancer cells. It is filed as in vivo, mouse. The method, then: CT26-G12C colon cancer cells were SC. Implanted in BALB/C mice, and left to develop SC. Tumors for 20 days, then treated with oral gavage of 3 mg/kg/mouse TRA or 30 mg/kg/mouse AMG-510 for 6 days alone or for 20 days with anti-PD1 Ab (IP 200 μg/mouse twice a week). Tumor size was measured till mice being sacrificed. tumors were collected and stained for T cell, and Myeloid cell markers mouse antibodies (anti-CD45, anti-CD8, anti-CD4, anti-CD3, anti-CD69, anti-PD1, anti-CD25, anti-CD62L, anti-CD44, anti-F4/80, anti-CD11C, anti-CD11b, anti-Ly6G, ant-Ly6C and Live/Dead near IR viability dye). CM (central memory): CD62L+CD44+, EM (Effector memory) CD62L-CD44+. Mice survival was assessed using Kaplan-Meier survival test.

Test [3] deals with HCC44-PSCA. Kind of test: HCC44-PSCA SC tumors in NSG mice with IV CAR-T transfer (human T cell ACT mouse model). It is filed as in vivo. The protocol: Inoculated in NSG mice and received IV CART transfer with AMG-510 Orla gavage (30 mg/Kg/Mouse for 6 days then sacrificed and tumors were collected and stained with T cells markers, or for 20 days with IP anti-human PD1 Ab (twice a week) for Tumor growth curve.

With `C=CC(=O)N1CCN(c2nc(=O)n(-c3c(C)ccnc3C(C)C)c3nc(-c4c(O)cccc4F)c(F)cc23)[C@@H](C)C1` (atropisomer, axis not shown) [Sotorasib, 6-fluoro-7-(2-fluoro-6-hydroxyphenyl)-(1/W)-1-[4-methyl-2-(propan-2-yl)pyridin-3-yl]-4-[(2S)-2-methyl-4-(prop-2-enoyl)piperazin-1-yl]pyrido[2,3-cf]pyrimidin-2 (1/-/)-one], the “immuno-active and growth-active tumor clusters (scRNA-seq, cell % per cluster)” value in test [1] (CT26-G12C SC tumors and in vitro cell line) is “enriches the immuno-active and diminishes growth-active tumor clusters”. Besides, the “tumor clusters by top upregulated pathways (scRNA-seq)” value in test [1] (Sotorasib-treated CT26-G12C tumors) was “enrichment of tumor clusters with TNFα and IFNγ as top upregulated pathways”. Further, the “expansion of tumor infiltrating lymphocytes (TILs)” value was “significantly promoted the expansion of tumor infiltrating lymphocytes” in test [2] (CT26-G12C heterotrophic mouse model, 30 mg/kg/mouse oral gavage, 6 days) and “significantly promoted the expansion of tumor infiltrating lymphocytes” in test [3] (human T cell adoptive therapy (ACT) mouse model, 30 mg/Kg/Mouse oral gavage, 6 days). The “mouse survival (Kaplan-Meier)” value in test [2] (combined with anti-PD-1, CT26-G12C model) is “prolonging mouse survival”. In addition, in test [2] (mouse tumor models), the “tumor microenvironment / T cell effector phenotype” value was “strikingly augmented T cell effector phenotype”. Also, the “control of CT26-G12C tumor growth” value in test [2] (mouse, in vivo, ip) is on record as “synergized with anti-PD-1 in controlling CT26-G12C tumor growth”. Also, the “anti-tumor effect of CAR-T adoptive cell transfer and anti-PD1” value in test [3] (combined with CAR-T adoptive cell transfer and anti-PD1 treatment) is on record as “enhanced their anti-tumor effect”.

Source of the values: patent US20250295665A1, “SELECTIVE K-RAS INHIBITORS FOR THE ENHANCEMENT OF ADOPTIVE IMMUNOTHERAPIES” (H. LEE MOFFITT CANCER CENTER AND RESEARCH INSTITUTE INC., priority 2022, published 2025).
